In ChEMBL document CHEMBL2440075, “In vitro structure-activity relationships of aplysinopsin analogs and their in vivo evaluation in the chick anxiety-depression model” (Bioorg Med Chem, 2013):

Tests used:
[1] = target: T1, 5-hydroxytryptamine receptor 2C (Homo sapiens, UniProt P28335); assay: Displacement of [3H]mesulergine from human recombinant 5HT2C receptor expressed in Flp-IN HEK cells; format: cell-based, HEK293
T1 sequence (P28335 whole entry): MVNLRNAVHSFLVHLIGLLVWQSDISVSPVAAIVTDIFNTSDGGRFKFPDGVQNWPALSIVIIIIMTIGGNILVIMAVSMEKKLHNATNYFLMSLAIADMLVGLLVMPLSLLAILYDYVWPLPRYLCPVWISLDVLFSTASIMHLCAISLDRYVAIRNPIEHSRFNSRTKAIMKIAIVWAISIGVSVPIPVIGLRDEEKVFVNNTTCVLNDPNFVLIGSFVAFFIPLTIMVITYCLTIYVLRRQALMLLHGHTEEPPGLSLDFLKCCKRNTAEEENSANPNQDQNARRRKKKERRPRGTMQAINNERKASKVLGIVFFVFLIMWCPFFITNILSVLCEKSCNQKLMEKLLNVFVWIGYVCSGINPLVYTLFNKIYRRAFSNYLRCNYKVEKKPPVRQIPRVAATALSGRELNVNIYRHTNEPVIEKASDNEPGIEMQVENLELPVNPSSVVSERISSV

[2] = target: 5-hydroxytryptamine receptor 2B (Homo sapiens, UniProt P41595); assay: Displacement of [3H]LSD from human recombinant 5HT2B receptor stably expressed in HEK cells; format: cell-based, HEK293
Chain of 5-hydroxytryptamine receptor 2B (P41595 whole entry): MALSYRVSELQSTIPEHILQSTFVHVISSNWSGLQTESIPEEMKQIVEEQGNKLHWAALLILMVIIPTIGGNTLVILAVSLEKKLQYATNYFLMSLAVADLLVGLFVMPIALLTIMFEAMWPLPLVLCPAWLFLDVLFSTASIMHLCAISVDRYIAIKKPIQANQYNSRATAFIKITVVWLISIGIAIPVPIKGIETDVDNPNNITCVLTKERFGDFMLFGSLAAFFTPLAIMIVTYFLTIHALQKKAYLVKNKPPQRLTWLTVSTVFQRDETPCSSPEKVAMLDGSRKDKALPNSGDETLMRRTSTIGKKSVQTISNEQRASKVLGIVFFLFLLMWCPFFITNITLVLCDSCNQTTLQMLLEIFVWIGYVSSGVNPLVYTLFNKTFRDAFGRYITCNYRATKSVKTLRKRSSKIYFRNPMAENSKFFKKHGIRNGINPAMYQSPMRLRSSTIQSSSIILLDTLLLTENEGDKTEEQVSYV

[3] = target: 5-hydroxytryptamine receptor 1E (Homo sapiens, UniProt P28566); assay: Displacement of [3H]5-HT from human recombinant 5HT1E receptor stably expressed in HEK cells; format: cell-based, HEK293
Chain of 5-hydroxytryptamine receptor 1E (P28566 whole entry): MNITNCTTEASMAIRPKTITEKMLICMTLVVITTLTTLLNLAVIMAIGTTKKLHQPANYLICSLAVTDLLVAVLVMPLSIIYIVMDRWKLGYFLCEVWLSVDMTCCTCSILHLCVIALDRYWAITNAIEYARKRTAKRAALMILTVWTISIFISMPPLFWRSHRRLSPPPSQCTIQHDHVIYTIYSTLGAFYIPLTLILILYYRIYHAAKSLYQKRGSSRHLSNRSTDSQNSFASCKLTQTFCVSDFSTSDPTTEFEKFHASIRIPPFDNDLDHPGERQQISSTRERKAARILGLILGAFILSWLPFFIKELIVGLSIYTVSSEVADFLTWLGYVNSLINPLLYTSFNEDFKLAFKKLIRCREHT

[4] = target: T2, 5-hydroxytryptamine receptor 1A (Homo sapiens, UniProt P08908); assay: Displacement of [3H]way100635 from human recombinant 5HT1A receptor stably expressed in CHO cells; format: cell-based
T2 sequence (P08908 whole entry): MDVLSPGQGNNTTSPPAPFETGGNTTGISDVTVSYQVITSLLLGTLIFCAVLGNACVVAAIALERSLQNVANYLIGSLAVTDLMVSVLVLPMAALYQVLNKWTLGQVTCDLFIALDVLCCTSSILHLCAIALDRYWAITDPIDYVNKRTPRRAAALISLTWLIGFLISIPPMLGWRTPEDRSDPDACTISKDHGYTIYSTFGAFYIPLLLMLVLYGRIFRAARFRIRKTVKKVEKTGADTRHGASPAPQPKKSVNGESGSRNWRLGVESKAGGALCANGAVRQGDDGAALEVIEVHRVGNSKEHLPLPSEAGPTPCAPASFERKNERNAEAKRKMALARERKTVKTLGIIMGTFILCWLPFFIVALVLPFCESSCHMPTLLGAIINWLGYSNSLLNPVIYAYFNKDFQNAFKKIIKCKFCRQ

[5] = target: 5-hydroxytryptamine receptor 5A (Homo sapiens, UniProt P47898); assay: Displacement of [3H]LSD from human recombinant 5HT5A receptor expressed in Flp-In CHO cells; format: cell-based
Chain of 5-hydroxytryptamine receptor 5A (P47898 whole entry): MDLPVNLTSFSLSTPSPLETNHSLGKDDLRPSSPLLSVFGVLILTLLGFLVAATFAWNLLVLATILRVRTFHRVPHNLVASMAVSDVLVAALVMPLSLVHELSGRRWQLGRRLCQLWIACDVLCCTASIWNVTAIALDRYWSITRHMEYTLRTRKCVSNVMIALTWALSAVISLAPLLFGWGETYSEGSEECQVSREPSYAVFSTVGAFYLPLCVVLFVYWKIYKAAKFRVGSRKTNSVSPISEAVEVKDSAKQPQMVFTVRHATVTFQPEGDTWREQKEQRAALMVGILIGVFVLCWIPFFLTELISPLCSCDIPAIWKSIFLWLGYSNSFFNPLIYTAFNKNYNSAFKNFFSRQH

[6] = target: 5-hydroxytryptamine receptor 2A (Rattus norvegicus, UniProt P14842); assay: Displacement of [3H]ketanserin from rat 5HT2A receptor stably expressed in 3T3 cells; format: cell-based
Chain of 5-hydroxytryptamine receptor 2A (P14842 whole entry): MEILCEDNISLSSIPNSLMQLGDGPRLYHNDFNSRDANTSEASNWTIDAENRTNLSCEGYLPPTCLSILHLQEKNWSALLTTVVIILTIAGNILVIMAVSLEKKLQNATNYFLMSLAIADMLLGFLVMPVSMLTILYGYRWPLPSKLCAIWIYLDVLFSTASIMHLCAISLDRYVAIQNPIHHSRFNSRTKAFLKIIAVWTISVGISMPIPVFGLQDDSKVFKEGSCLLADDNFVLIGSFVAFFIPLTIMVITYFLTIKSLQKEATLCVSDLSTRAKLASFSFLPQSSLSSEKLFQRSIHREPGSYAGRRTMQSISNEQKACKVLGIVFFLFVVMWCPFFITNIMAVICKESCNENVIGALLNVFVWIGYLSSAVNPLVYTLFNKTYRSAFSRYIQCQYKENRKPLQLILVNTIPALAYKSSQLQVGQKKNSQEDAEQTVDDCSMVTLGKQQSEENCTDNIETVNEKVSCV

[7] = target: 5-hydroxytryptamine receptor 7 (Homo sapiens, UniProt P34969); assay: Displacement of [3H]LSD from human recombinant 5HT7 receptor stably expressed in HEK cells; format: cell-based, HEK293
Chain of 5-hydroxytryptamine receptor 7 (P34969 whole entry): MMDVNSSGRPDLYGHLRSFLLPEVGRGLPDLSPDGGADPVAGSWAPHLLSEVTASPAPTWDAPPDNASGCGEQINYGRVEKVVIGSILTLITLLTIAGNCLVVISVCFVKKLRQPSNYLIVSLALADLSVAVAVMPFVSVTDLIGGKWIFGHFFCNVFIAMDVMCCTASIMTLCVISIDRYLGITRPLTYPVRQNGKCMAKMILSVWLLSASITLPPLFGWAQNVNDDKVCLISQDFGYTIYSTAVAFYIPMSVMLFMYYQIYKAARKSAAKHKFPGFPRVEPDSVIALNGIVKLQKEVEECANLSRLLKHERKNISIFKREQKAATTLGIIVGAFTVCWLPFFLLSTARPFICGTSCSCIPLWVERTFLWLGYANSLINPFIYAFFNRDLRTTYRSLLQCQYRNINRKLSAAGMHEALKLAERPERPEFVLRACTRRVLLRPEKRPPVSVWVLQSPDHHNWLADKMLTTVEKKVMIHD

[8] = target: T3, 5-hydroxytryptamine receptor 3A (Homo sapiens, UniProt P46098); assay: Displacement of [3H]GR65630 from human recombinant 5HT3 receptor expressed in HEKT cells; format: cell-based
T3 sequence (P46098 whole entry): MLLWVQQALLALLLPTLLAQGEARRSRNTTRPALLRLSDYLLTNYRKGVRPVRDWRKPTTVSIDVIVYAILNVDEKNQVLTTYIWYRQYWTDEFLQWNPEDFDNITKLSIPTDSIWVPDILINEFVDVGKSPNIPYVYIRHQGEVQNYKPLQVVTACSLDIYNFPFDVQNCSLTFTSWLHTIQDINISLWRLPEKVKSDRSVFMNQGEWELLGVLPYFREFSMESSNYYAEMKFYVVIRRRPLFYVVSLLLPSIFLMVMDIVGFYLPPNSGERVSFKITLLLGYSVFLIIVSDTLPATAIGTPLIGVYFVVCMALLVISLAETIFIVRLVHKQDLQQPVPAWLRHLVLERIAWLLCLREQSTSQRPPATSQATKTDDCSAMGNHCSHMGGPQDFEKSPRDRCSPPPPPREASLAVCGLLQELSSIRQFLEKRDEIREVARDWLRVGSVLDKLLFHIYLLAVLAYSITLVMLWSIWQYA

[9] = target: 5-hydroxytryptamine receptor 4 (Homo sapiens, UniProt Q13639); assay: Displacement of [3H]GR113808 from human recombinant 5HT4 receptor
Chain of 5-hydroxytryptamine receptor 4 (Q13639 whole entry): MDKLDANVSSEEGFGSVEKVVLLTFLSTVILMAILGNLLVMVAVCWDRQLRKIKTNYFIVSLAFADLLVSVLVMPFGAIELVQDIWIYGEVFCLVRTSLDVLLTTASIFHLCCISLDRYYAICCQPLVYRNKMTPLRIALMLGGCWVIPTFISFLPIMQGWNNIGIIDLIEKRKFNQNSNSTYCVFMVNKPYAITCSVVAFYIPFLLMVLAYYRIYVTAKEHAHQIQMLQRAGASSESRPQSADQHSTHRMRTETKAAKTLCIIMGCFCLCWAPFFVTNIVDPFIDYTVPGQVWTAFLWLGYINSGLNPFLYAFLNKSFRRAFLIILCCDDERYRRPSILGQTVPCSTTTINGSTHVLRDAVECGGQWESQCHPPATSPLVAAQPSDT

[10] = target: 5-hydroxytryptamine receptor 6 (Homo sapiens, UniProt P50406); assay: Displacement of [3H]LSD from human recombinant 5HT6 receptor stably expressed in HEK cells; format: cell-based, HEK293
Chain of 5-hydroxytryptamine receptor 6 (P50406 whole entry): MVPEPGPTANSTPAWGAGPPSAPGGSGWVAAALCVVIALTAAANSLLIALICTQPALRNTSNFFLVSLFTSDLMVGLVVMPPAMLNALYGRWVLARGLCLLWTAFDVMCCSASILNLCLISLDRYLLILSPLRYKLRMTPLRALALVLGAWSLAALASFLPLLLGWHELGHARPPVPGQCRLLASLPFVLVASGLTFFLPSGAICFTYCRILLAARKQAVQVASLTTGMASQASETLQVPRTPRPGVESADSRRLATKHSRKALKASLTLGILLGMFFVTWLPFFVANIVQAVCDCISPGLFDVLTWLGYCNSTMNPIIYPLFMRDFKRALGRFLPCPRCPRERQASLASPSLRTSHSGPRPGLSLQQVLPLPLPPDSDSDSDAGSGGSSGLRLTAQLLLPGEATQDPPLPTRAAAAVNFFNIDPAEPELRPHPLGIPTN

[11] = target: 5-hydroxytryptamine receptor 1D (Homo sapiens, UniProt P28221); assay: Displacement of [3H]5-CT from human recombinant 5HT1D receptor expressed in HEKT cells; format: cell-based
Chain of 5-hydroxytryptamine receptor 1D (P28221 whole entry): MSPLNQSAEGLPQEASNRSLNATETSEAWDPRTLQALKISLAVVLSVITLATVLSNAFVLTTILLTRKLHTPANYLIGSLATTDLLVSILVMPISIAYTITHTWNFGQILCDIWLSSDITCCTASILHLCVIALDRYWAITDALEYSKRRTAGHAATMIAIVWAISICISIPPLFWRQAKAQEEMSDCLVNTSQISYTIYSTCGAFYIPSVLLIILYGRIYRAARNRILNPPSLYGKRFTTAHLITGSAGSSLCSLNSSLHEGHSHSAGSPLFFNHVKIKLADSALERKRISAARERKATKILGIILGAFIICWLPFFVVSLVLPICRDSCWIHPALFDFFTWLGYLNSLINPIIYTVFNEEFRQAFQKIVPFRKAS

[12] = target: 5-hydroxytryptamine receptor 1B (Homo sapiens, UniProt P28222); assay: Displacement of [3H]5-CT from human recombinant 5HT1B receptor stably expressed in HEK cells; format: cell-based, HEK293
Chain of 5-hydroxytryptamine receptor 1B (P28222 whole entry): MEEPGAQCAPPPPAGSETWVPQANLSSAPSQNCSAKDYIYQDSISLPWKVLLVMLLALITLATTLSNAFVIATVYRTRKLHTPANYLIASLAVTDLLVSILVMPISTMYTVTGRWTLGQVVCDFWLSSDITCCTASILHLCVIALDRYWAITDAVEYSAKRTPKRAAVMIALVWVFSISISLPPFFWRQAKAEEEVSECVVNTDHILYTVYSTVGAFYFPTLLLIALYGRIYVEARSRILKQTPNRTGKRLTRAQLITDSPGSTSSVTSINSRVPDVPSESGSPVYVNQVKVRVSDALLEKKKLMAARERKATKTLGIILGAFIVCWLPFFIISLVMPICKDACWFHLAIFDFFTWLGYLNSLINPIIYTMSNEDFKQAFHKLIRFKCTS

Row | SMILES | Ki [1] [nM] | Ki [2] [nM] | Ki [4] [nM] | Ki [5] [nM] | Ki [6] [nM] | other results
1 | C/N=C1/N/C(=C/c2c[nH]c3cc(Br)ccc23)C(=O)N1C | 10000 | 1270 | – | – | – | Ki [3]: > 10000 nM
2 | CN1C(=N)NC(=O)/C1=C\c1c[nH]c2ccc(Br)cc12 | 2450 | 852 | 3210 | – | – | Ki [3]: > 10000 nM
3 | CN1C(=N)N/C(=C/c2c[nH]c3cc(Br)ccc23)C1=O | 1920 | 190 | > 10000 | 5360 | 4160 | –
4 | C/N=C1\NC(=O)/C(=C\c2c[nH]c3ccc(Br)cc23)N1C | 1080 | 883 | 2620 | – | – | Ki [7]: 4110 nM; Ki [8]: 6180 nM
5 | N=C1NC(=O)/C(=C\c2c[nH]c3cccc(Br)c23)N1 | 604 | 447 | – | 123 | 4620 | –
6 | C/N=C1\N(C)C(=O)/C(=C\c2c[nH]c3cc(Br)ccc23)N1C | 1240 | 2470 | > 10000 | 4680 | – | –
7 | N=C1NC(=O)/C(=C\c2c[nH]c3cc(Br)ccc23)N1 | 201 | 269 | – | 184 | 3130 | Ki [3]: > 10000 nM
8 | CN1C(=N)N/C(=C/c2c[nH]c3ccc(Br)cc23)C1=O | 1270 | 94 | 7360 | 2330 | 279 | Ki [7]: 1220 nM
9 | CN1C(=N)N(C)/C(=C/c2c[nH]c3ccc(Br)cc23)C1=O | 1260 | 1250 | 527 | 6720 | – | Ki [8]: 1000 nM
10 | CSC1=NC(=O)/C(=C/c2c[nH]c3ccc(Br)cc23)N1 | 2090 | 1350 | – | – | – | Ki [9]: 3800 nM
11 | C/N=C1\N(C)C(=O)/C(=C\c2c[nH]c3ccccc23)N1C [METHYLAPLYSINOPSIN] | 10000 | 4550 | – | – | > 10000 | Ki [10]: 1720 nM; Ki [8]: 1510 nM; Ki [3]: > 10000 nM
12 | O=C1NC(=S)N/C1=C\c1c[nH]c2ccc(Br)cc12 | 4350 | 1680 | 2750 | – | – | –
13 | C/N=C1/N/C(=C/c2c[nH]c3cccc(Br)c23)C(=O)N1C | 2340 | 774 | – | – | – | Ki [11]: > 10000 nM; Ki [12]: > 10000 nM
14 | C/N=C1\NC(=O)/C(=C/c2c[nH]c3ccc(Br)cc23)N1 | 426 | 93 | – | – | 676 | Ki [10]: 860 nM; Ki [9]: 226 nM
15 | N=C1NC(=O)/C(=C\c2c[nH]c3c(Br)cccc23)N1 | 841 | 457 | – | 112 | 2150 | Ki [10]: 1400 nM; Ki [3]: > 10000 nM
16 | C/N=C1\NC(=O)/C(=C/c2c[nH]c3c(Br)cccc23)N1 | 678 | 353 | – | 3320 | 3590 | Ki [9]: 603 nM
17 | O=C1NC(=S)N/C1=C\c1c[nH]c2cc(Br)ccc12 | – | 2710 | – | – | – | –
18 | CN1C(=N)NC(=O)/C1=C\c1c[nH]c2c(Br)cccc12 | 4130 | 1420 | – | 1320 | > 10000 | Ki [3]: > 10000 nM
19 | C/N=C1\NC(=O)/C(=C\c2c[nH]c3c(Br)cccc23)N1C | 2210 | 661 | > 10000 | 1420 | 7970 | Ki [10]: 2310 nM; Ki [3]: > 10000 nM
20 | CN1C(=N)NC(=O)/C1=C\c1c[nH]c2cccc(Br)c12 | 2010 | 784 | – | – | 1410 | Ki [7]: 799 nM
21 | C/N=C1/N/C(=C/c2c[nH]c3c(Br)cccc23)C(=O)N1C | 10000 | 839 | – | – | – | Ki [3]: > 10000 nM
22 | CN1C(=N)N/C(=C/c2c[nH]c3cccc(Br)c23)C1=O | 1700 | 228 | 3440 | 1280 | 8670 | –

Row | SMILES | Ki [1] [nM] | Ki [2] [nM] | Ki [4] [nM] | Ki [5] [nM] | Ki [6] [nM] | other results
23 | C/N=C1\NC(=O)/C(=C/c2c[nH]c3cc(Br)ccc23)N1 | 980 | 154 | – | – | – | Ki [9]: 1160 nM
24 | C/N=C1\NC(=O)/C(=C/c2c[nH]c3ccccc23)N1 | 970 | 287 | – | – | – | Ki [9]: 928 nM
25 | C/N=C1\N(C)C(=O)/C(=C\c2c[nH]c3ccc(Br)cc23)N1C | 2430 | 1620 | 2510 | 9120 | – | Ki [7]: 5370 nM; Ki [8]: 2620 nM
26 | CN1C(=N)N(C)/C(=C/c2c[nH]c3cc(Br)ccc23)C1=O | 1700 | 2670 | > 10000 | 9620 | – | –
27 | CN1C(=N)N(C)/C(=C/c2c[nH]c3ccccc23)C1=O [APLYSINOPSIN] | 10000 | 4450 | > 10000 | – | – | Ki [10]: 8770 nM; Ki [8]: 3030 nM
28 | N=C1NC(=O)/C(=C\c2c[nH]c3ccccc23)N1 | 349 | 232 | – | 101 | 1170 | –
29 | C/N=C1/N/C(=C/c2c[nH]c3ccccc23)C(=O)N1C | 10000 | 5060 | – | – | – | Ki [3]: > 10000 nM
30 | C/N=C1/N/C(=C/c2c[nH]c3ccc(Br)cc23)C(=O)N1C | 1340 | 520 | – | – | > 10000 | Ki [7]: 3350 nM
31 | O=C1NC(=S)N/C1=C\c1c[nH]c2cccc(Br)c12 | 1870 | 369 | – | – | – | Ki [9]: 2360 nM
32 | CSC1=NC(=O)/C(=C/c2c[nH]c3cccc(Br)c23)N1 | 885 | 780 | – | – | – | Ki [9]: 1060 nM
33 | CN1C(=N)N/C(=C/c2c[nH]c3ccccc23)C1=O | 10000 | 1280 | – | – | – | Ki [3]: > 10000 nM
34 | C/N=C1\N(C)C(=O)/C(=C\c2c[nH]c3cccc(Br)c23)N1C | 1860 | 897 | 6930 | 5080 | > 10000 | Ki [10]: 7520 nM; Ki [8]: 591 nM; Ki [3]: > 10000 nM; Ki [11]: 2550 nM
35 | C/N=C1\NC(=O)/C(=C\c2c[nH]c3cc(Br)ccc23)N1C | 2280 | 489 | – | – | – | –
36 | C/N=C1\NC(=O)/C(=C\c2c[nH]c3ccccc23)N1C [ISOPLYSIN A] | 2350 | 716 | – | – | – | –
37 | CN1C(=N)NC(=O)/C1=C\c1c[nH]c2ccccc12 | 4780 | 964 | – | – | – | –
38 | C/N=C1\NC(=O)/C(=C/c2c[nH]c3cccc(Br)c23)N1 | 80 | 50 | – | 3370 | 470 | Ki [10]: 3730 nM; Ki [9]: 472 nM
39 | CN1C(=N)N/C(=C/c2c[nH]c3c(Br)cccc23)C1=O | 10000 | 593 | 7270 | 1550 | – | Ki [3]: > 10000 nM
40 | C/N=C1\N(C)C(=O)/C(=C\c2c[nH]c3c(Br)cccc23)N1C | 6470 | 965 | > 10000 | 6910 | – | Ki [10]: 7300 nM; Ki [11]: 8870 nM; Ki [12]: > 10000 nM
41 | CN1C(=N)NC(=O)/C1=C\c1c[nH]c2cc(Br)ccc12 | 3880 | 1380 | – | – | – | –
42 | CSC1=NC(=O)/C(=C/c2c[nH]c3c(Br)cccc23)N1 | – | 993 | – | – | – | Ki [9]: 2350 nM
43 | O=C1NC(=S)N/C1=C\c1c[nH]c2c(Br)cccc12 | – | – | – | – | – | Ki [9]: 2210 nM
44 | CSC1=NC(=O)/C(=C/c2c[nH]c3cc(Br)ccc23)N1 | 4370 | 1140 | – | – | – | Ki [9]: 5310 nM
